How the values were obtained:
BROTE (downy brome) [1] = experiment: Post-emergence herbicidal activity, cool season; type: in vivo, Bromus tectorum; conditions: abraded plants sprayed at 300, 100, 30 and 10 g/ha; about 14 days after treatment
Outline: (§1)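 Seedlings grown from seed in topsoil pots were treated 9 to 14 days after planting, foliage first abraded with garnet particles, then sprayed with test compound in 50:50 acetone/water at 300, 100, 30 and 10 g/ha (3,100 l/ha). Kept at 18/13° C. day/night, percent inhibition versus abraded unsprayed controls was scored about 14 days later and GR80 assigned.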

SORVU (shattercane) = experiment: Pre-emergence herbicidal activity, warm season; type: in vivo, Sorghum vulgare; conditions: GR80 = lowest tested rate (300, 100, 30, 10 g/ha) with 80% or greater inhibition; approx. 14 days after treating; 30/21° C.
Outline: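 Activity is expressed as the rate giving 80% inhibition, with 300, 100, 30 and 10 g/ha typically tested. An asterisk marks activity short of 80% at the top rate. Warm-season grasses were held at 30/21 °C; cool-season blackgrass and wild buckwheat at 18/13 °C; scoring at about 14 days.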

[2] = system: PANMI (wild proso millet); experiment: Pre-emergence herbicidal activity, warm season; type: in vivo, Panicum miliaceum; conditions: GR80 = lowest tested rate (300, 100, 30, 10 g/ha) with 80% or greater inhibition; approx. 14 days after treating; 30/21° C.
Outline: (§2)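 Each pot received seeds on sterilized fertilized topsoil, a soil cover, and a surface spray of compound (300–10 g/ha, acetone/water 50:50). Plants grew about 14 days at 30/21 °C (PANMI, DIGSA) or 18/13 °C (ALOMY, POLCO) before inhibition was rated against untreated pots to give GR80.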

SETVI (green foxtail) = experiment: Post-emergence herbicidal activity, cool season; type: in vivo, Setaria viridis; conditions: abraded plants sprayed at 300, 100, 30 and 10 g/ha; about 14 days after treatment
Outline: as §1

AVEFA (wild oat) = experiment: Post-emergence herbicidal activity, cool season; type: in vivo, Avena fatua; conditions: abraded plants sprayed at 300, 100, 30 and 10 g/ha; about 14 days after treatment
Outline: as §1

DIGSA (large crabgrass) [3] = experiment: Pre-emergence herbicidal activity, warm season; type: in vivo, Digitaria sanguinalis; conditions: GR80 = lowest tested rate (300, 100, 30, 10 g/ha) with 80% or greater inhibition; approx. 14 days after treating; 30/21° C.
Outline: as §2

DIGSA (large crabgrass) [4] = experiment: Pre-plant incorporated (PPI) herbicidal activity, warm season; type: in vivo, Digitaria sanguinalis; conditions: for PPI activity GR80, DIGSA: pre-plant incorporated, lowest tested rate with 80% or greater inhibition, about 14 days
Outline: (§3)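 Compound-laden cover soil (organic solvent spray, mixed in) over seeds; 0.64 cm overhead water initially. Evaluated ~14 days: % inhibition relative to untreated.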

POLCO (wild buckwheat) = experiment: Pre-plant incorporated (PPI) herbicidal activity, cool season; type: in vivo, Polygonum convolvulus; conditions: pre-plant incorporated; lowest tested rate with 80% or greater inhibition; about 14 days
Outline: as §3

BROTE (downy brome) [5] = experiment: as above; type: in vivo, Bromus tectorum; conditions: for inhibition at 10 g/ha / inhibition at 30 g/ha / inhibition at 100 g/ha / inhibition at 300 g/ha / inhibition at 900 g/ha: Bromus tectorum, read-out: Percent inhibition BROTE; for inhibition at 10 g/ha / inhibition at 30 g/ha / inhibition at 100 g/ha / inhibition at 300 g/ha / inhibition at 900 g/ha / Percent inhibition BROTE: weed, PPI application; for PPI activity GR80, BROTE: pre-plant incorporated, lowest tested rate with 80% or greater inhibition, about 14 days
Outline: as §3

LOLMG (annual ryegrass) = experiment: Post-emergence herbicidal activity, cool season; type: in vivo, Lolium multiflorum; conditions: abraded plants sprayed at 300, 100, 30 and 10 g/ha; about 14 days after treatment
Outline: as §1

[6] = Digitaria sanguinalis, PPI application, 30 g/ha, read-out: Percent inhibition DIGSA
[7] = Digitaria sanguinalis, PPI application, 100 g/ha, read-out: Percent inhibition DIGSA
[8] = Digitaria sanguinalis, PPI application, 300 g/ha, read-out: Percent inhibition DIGSA
[9] = Digitaria sanguinalis, PPI application, 900 g/ha, read-out: Percent inhibition DIGSA

## C=C(C)CC(F)(F)S(=O)(=O)c1ncn(C(=O)N(CC)CC)n1 [Example 18]
BROTE (downy brome) [1]
  Post-emergence activity GR80, BROTE: [empty]
SORVU (shattercane)
  Pre-emergence activity (GR80) SORVU: * (activity observed, at least at highest rate, but <80% inhibition)
[2]
  Pre-emergence activity (GR80) PANMI: 30 g/ha
SETVI (green foxtail)
  Post-emergence activity GR80, SETVI: [empty]
AVEFA (wild oat)
  Post-emergence activity GR80, AVEFA: [empty]
DIGSA (large crabgrass) [3]
  Pre-emergence activity (GR80) DIGSA: 100 g/ha
DIGSA (large crabgrass) [4]; Digitaria sanguinalis, PPI application, 10 g/ha, read-out: Percent inhibition DIGSA
  inhibition at 10 g/ha: 20%
DIGSA (large crabgrass) [4]; [6]
  inhibition at 30 g/ha: 80%
DIGSA (large crabgrass) [4]; [7]
  inhibition at 100 g/ha: 80%
DIGSA (large crabgrass) [4]; [8]
  inhibition at 300 g/ha: 100%
DIGSA (large crabgrass) [4]; [9]
  inhibition at 900 g/ha: 100%
DIGSA (large crabgrass) [4]
  PPI activity GR80, DIGSA: 30 g/ha
POLCO (wild buckwheat)
  PPI activity GR80, POLCO: 100 g/ha
BROTE (downy brome) [5]; 10 g/ha
  inhibition at 10 g/ha: 0%
BROTE (downy brome) [5]; 30 g/ha
  inhibition at 30 g/ha: 0%
BROTE (downy brome) [5]; 100 g/ha
  inhibition at 100 g/ha: 0%
BROTE (downy brome) [5]; 300 g/ha
  inhibition at 300 g/ha: 20%
BROTE (downy brome) [5]; 900 g/ha
  inhibition at 900 g/ha: 90%
BROTE (downy brome) [5]
  PPI activity GR80, BROTE: 300 g/ha
LOLMG (annual ryegrass)
  Post-emergence activity GR80, LOLMG: [empty]

## C=C(Br)CC(F)(F)S(=O)(=O)c1ncn(C(=O)N(CC)CC)n1 [Example 19]
BROTE (downy brome) [1]
  Post-emergence activity GR80, BROTE: [empty]
SORVU (shattercane)
  Pre-emergence activity (GR80) SORVU: 300 g/ha
[2]
  Pre-emergence activity (GR80) PANMI: 100 g/ha
SETVI (green foxtail)
  Post-emergence activity GR80, SETVI: [empty]
AVEFA (wild oat)
  Post-emergence activity GR80, AVEFA: [empty]
DIGSA (large crabgrass) [3]
  Pre-emergence activity (GR80) DIGSA: 100 g/ha
DIGSA (large crabgrass) [4]; [6]
  inhibition at 30 g/ha: 40%
DIGSA (large crabgrass) [4]; [7]
  inhibition at 100 g/ha: 90%
DIGSA (large crabgrass) [4]; [8]
  inhibition at 300 g/ha: 90%
DIGSA (large crabgrass) [4]; [9]
  inhibition at 900 g/ha: 99%
DIGSA (large crabgrass) [4]
  PPI activity GR80, DIGSA: 30 g/ha
POLCO (wild buckwheat)
  PPI activity GR80, POLCO: * (activity observed, at least at highest rate, but <80% inhibition)
BROTE (downy brome) [5]; 10 g/ha
  inhibition at 10 g/ha: 0%
BROTE (downy brome) [5]; 30 g/ha
  inhibition at 30 g/ha: 20%
BROTE (downy brome) [5]; 100 g/ha
  inhibition at 100 g/ha: 20%
BROTE (downy brome) [5]; 300 g/ha
  inhibition at 300 g/ha: 60%
BROTE (downy brome) [5]; 900 g/ha
  inhibition at 900 g/ha: 95%
BROTE (downy brome) [5]
  PPI activity GR80, BROTE: 300 g/ha
LOLMG (annual ryegrass)
  Post-emergence activity GR80, LOLMG: [empty]

## C=C(CC(F)(F)S(=O)(=O)c1ncn(C(=O)N(CC)CC)n1)C[Si](C)(C)C [Example 20]
BROTE (downy brome) [1]
  Post-emergence activity GR80, BROTE: [empty]
SORVU (shattercane)
  Pre-emergence activity (GR80) SORVU: 300 g/ha
[2]
  Pre-emergence activity (GR80) PANMI: 100 g/ha
SETVI (green foxtail)
  Post-emergence activity GR80, SETVI: [empty]
AVEFA (wild oat)
  Post-emergence activity GR80, AVEFA: [empty]
DIGSA (large crabgrass) [3]
  Pre-emergence activity (GR80) DIGSA: 100 g/ha
DIGSA (large crabgrass) [4]; PPI application, 10 g/ha
  Percent inhibition DIGSA: 0%
DIGSA (large crabgrass) [4]; PPI application, 30 g/ha
  Percent inhibition DIGSA: 80%
DIGSA (large crabgrass) [4]; PPI application, 100 g/ha
  Percent inhibition DIGSA: 90%
DIGSA (large crabgrass) [4]; PPI application, 300 g/ha
  Percent inhibition DIGSA: 100%
DIGSA (large crabgrass) [4]; PPI application, 900 g/ha
  Percent inhibition DIGSA: 99%
DIGSA (large crabgrass) [4]
  PPI activity GR80, DIGSA: 100 g/ha
POLCO (wild buckwheat)
  PPI activity GR80, POLCO: * (activity observed, at least at highest rate, but <80% inhibition)
BROTE (downy brome) [5]
  PPI activity GR80, BROTE: 300 g/ha
BROTE (downy brome) [5]; 10 g/ha
  Percent inhibition BROTE: 0%
BROTE (downy brome) [5]; 30 g/ha
  Percent inhibition BROTE: 0%
BROTE (downy brome) [5]; 100 g/ha
  Percent inhibition BROTE: 0%
BROTE (downy brome) [5]; 300 g/ha
  Percent inhibition BROTE: 40%
BROTE (downy brome) [5]; 900 g/ha
  Percent inhibition BROTE: 50%
LOLMG (annual ryegrass)
  Post-emergence activity GR80, LOLMG: [empty]
